From ChEMBL document CHEMBL5058564, “EUbOPEN Chemogenomics Library 2 (Incucyte)” (2022)

How the values were obtained:
Assay type in all cases: toxicity, cell-based
HEK-293T = assay: Incucyte cell viability with HEK293T; details: human, 10 µM, compound concentration 10 uM
Fibroblast = assay: Incucyte cell viability with human fibroblast; details: 10 µM, compound concentration 10 uM
U2OS = assay: Incucyte cell viability with U2OS; details: human, 10 µM, compound concentration 10 uM
[1] = 0 h, replicate number 1, timepoint 0 hours
[2] = 0 h, replicate number 2, timepoint 0 hours
[3] = 6 h, replicate number 2, timepoint 6 hours
[4] = 6 h, replicate number 1, timepoint 6 hours
[5] = 12 h, replicate number 2, timepoint 12 hours
[6] = 18 h, replicate number 1, timepoint 18 hours
[7] = 24 h, replicate number 1, timepoint 24 hours
[8] = 24 h, replicate number 2, timepoint 24 hours
[9] = 12 h, replicate number 1, timepoint 12 hours
[10] = 18 h, replicate number 2, timepoint 18 hours
Also: unitless GR value; below 1 slowed growth and below 0 cell loss.

CCOc1nc2cccc(C(=O)O)c2n1Cc1ccc(-c2ccccc2-c2nnn[nH]2)cc1
Growth Rate (HEK-293T; [1]): 0.86
Growth Rate (HEK-293T; [2]): 0.52
Growth Rate (HEK-293T; [3]): 0.94
Growth Rate (Fibroblast; [2]): 0.54
Growth Rate (Fibroblast; [4]): 0.77
Growth Rate (Fibroblast; [3]): 0.71
Growth Rate (Fibroblast; [5]): 0.56
Growth Rate (Fibroblast; [6]): 0.8
Growth Rate (Fibroblast; [7]): 0.89
Growth Rate (Fibroblast; [8]): 0.45
Growth Rate (U2OS; [9]): 0.85
Growth Rate (U2OS; [5]): 0.99
Growth Rate (U2OS; [6]): 0.58

Cc1ccc(CNc2ncnc3ccc(-c4ccc(CO)o4)cc23)o1
Growth Rate (HEK-293T; [1]): 0.47
Growth Rate (Fibroblast; [1]): -0.65
Growth Rate (Fibroblast; [2]): 0.65
Growth Rate (U2OS; [1]): -0.73

O=C1NC(Nc2ccccc2)=N/C1=C\c1ccc2c(c1)OCO2
Growth Rate (HEK-293T; [1]): 0.84
Growth Rate (HEK-293T; [2]): 0.94
Growth Rate (HEK-293T; [4]): 0.37
Growth Rate (HEK-293T; [3]): 0.13
Growth Rate (HEK-293T; [9]): 0.75
Growth Rate (HEK-293T; [5]): 0.51
Growth Rate (HEK-293T; [6]): 0.75
Growth Rate (HEK-293T; [10]): 0.58
Growth Rate (HEK-293T; [7]): 0.82
Growth Rate (HEK-293T; [8]): 0.78
Growth Rate (Fibroblast; [2]): 0.56
Growth Rate (Fibroblast; [4]): 0.26
Growth Rate (Fibroblast; [9]): 0.74
Growth Rate (U2OS; [2]): -1
Growth Rate (U2OS; [4]): -0.77
Growth Rate (U2OS; [3]): 0.8
Growth Rate (U2OS; [9]): 0.12
Growth Rate (U2OS; [5]): 0.66
Growth Rate (U2OS; [6]): 0.39
Growth Rate (U2OS; [10]): 0.59
Growth Rate (U2OS; [7]): 0.59
Growth Rate (U2OS; [8]): 0.63

COc1cccc2c1c(NS(=O)(=O)c1ccc(Cl)s1)nn2Cc1cccc(CNC(=O)C(C)(C)O)c1
Growth Rate (HEK-293T; [1]): 0.52
Growth Rate (HEK-293T; [3]): 0.95
Growth Rate (HEK-293T; [9]): 0.98
Growth Rate (HEK-293T; [5]): 0.47
Growth Rate (HEK-293T; [7]): 0.38
Growth Rate (Fibroblast; [2]): 0.35
Growth Rate (Fibroblast; [4]): 0.17
Growth Rate (Fibroblast; [3]): 0.5
Growth Rate (Fibroblast; [9]): 0.41
Growth Rate (Fibroblast; [6]): 0.35
Growth Rate (Fibroblast; [7]): 0.53
Growth Rate (U2OS; [1]): -0.39
Growth Rate (U2OS; [2]): -1
Growth Rate (U2OS; [9]): 0.99
Growth Rate (U2OS; [5]): 0.98
Growth Rate (U2OS; [10]): 0.83
Growth Rate (U2OS; [8]): 0.89

N#Cc1cc(F)cc(-c2nc(-c3ccc(F)cn3)no2)c1
Growth Rate (HEK-293T; [1]): 0.85
Growth Rate (HEK-293T; [2]): 0.21
Growth Rate (Fibroblast; [2]): 0.68
Growth Rate (Fibroblast; [4]): -0.02
Growth Rate (Fibroblast; [9]): 0.63
Growth Rate (Fibroblast; [6]): 0.84
Growth Rate (Fibroblast; [7]): 0.6
Growth Rate (U2OS; [2]): -0.87
Growth Rate (U2OS; [4]): -0.32
Growth Rate (U2OS; [3]): 0.62
Growth Rate (U2OS; [9]): 0.46
Growth Rate (U2OS; [5]): 0.86
Growth Rate (U2OS; [6]): 0.57
Growth Rate (U2OS; [7]): 0.65

COc1cc(OC2CCN(C(C)=O)CC2)ccc1C(=O)N1CCC(N2C(=O)OCc3ccccc32)CC1
Growth Rate (HEK-293T; [1]): 0.92
Growth Rate (Fibroblast; [4]): -0.07
Growth Rate (Fibroblast; [3]): -0.41
Growth Rate (Fibroblast; [9]): 0.28
Growth Rate (Fibroblast; [5]): 0.65
Growth Rate (Fibroblast; [6]): 0.37
Growth Rate (Fibroblast; [7]): 0.24
Growth Rate (U2OS; [1]): 0.75
Growth Rate (U2OS; [4]): 0.85
Growth Rate (U2OS; [3]): 0.79
Growth Rate (U2OS; [5]): 0.77
Growth Rate (U2OS; [6]): 0.91
Growth Rate (U2OS; [10]): 0.78
Growth Rate (U2OS; [7]): 0.91
Growth Rate (U2OS; [8]): 0.88

COc1ccc(-n2c(C)c([N+](=O)[O-])c3ccc(O)cc32)cc1
Growth Rate (HEK-293T; [1]): 0.39
Growth Rate (Fibroblast; [3]): 0.98
Growth Rate (Fibroblast; [10]): 0.87
Growth Rate (Fibroblast; [8]): 0.5
Growth Rate (U2OS; [2]): -1
Growth Rate (U2OS; [4]): -0.36
Growth Rate (U2OS; [3]): 0.75
Growth Rate (U2OS; [9]): 0.46
Growth Rate (U2OS; [5]): 0.73
Growth Rate (U2OS; [6]): 0.7
Growth Rate (U2OS; [10]): 0.71
Growth Rate (U2OS; [7]): 0.63
Growth Rate (U2OS; [8]): 0.67

Cc1nc[nH]c1CCN.Cl
Growth Rate (HEK-293T; [1]): 0.42
Growth Rate (HEK-293T; [2]): 0.64
Growth Rate (HEK-293T; [9]): 0.91
Growth Rate (HEK-293T; [6]): 0.92
Growth Rate (HEK-293T; [7]): 0.81
Growth Rate (Fibroblast; [1]): 0.7
Growth Rate (Fibroblast; [3]): 0.14
Growth Rate (Fibroblast; [5]): 0.83
Growth Rate (Fibroblast; [10]): 0.58
Growth Rate (Fibroblast; [8]): 0.86
Growth Rate (U2OS; [1]): -0.24
Growth Rate (U2OS; [2]): -1
Growth Rate (U2OS; [6]): 0.91
